“And” between values parts separate entries of the source, which are not always exact repeats. Equal values may be shown once.
Tests used:
Format in all cases: cell-based
320 non-olfactory GPCRs [1] = molecular target: 320 non-olfactory GPCRs (Homo sapiens, UniProt O95665); conditions: receptor NTSR2; replicate values, Fig_4g
320 non-olfactory GPCRs [2] = molecular target: T1, 320 non-olfactory GPCRs (Homo sapiens, UniProt P43115); conditions: receptor PTGER3; replicate values, Fig_4g
T1 construct: expressed in transfected cells; host or cells: HTLA cells
T1 sequence (P43115 whole entry): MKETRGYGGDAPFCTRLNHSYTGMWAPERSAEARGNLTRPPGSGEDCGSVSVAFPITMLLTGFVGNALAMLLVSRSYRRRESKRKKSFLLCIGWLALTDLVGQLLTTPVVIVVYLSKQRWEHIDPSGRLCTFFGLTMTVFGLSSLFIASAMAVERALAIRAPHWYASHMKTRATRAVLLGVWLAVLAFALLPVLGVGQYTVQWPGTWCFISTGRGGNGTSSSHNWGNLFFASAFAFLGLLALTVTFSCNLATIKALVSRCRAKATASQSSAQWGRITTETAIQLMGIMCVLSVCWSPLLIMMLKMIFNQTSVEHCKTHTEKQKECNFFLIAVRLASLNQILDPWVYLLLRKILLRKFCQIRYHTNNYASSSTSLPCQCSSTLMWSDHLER

320 non-olfactory GPCRs [3] = molecular target: T2, 320 non-olfactory GPCRs (Homo sapiens, UniProt Q96P68); conditions: receptor OXGR1; replicate values, Fig_4g
T2 construct: expressed in transfected cells; host or cells: HTLA cells

320 non-olfactory GPCRs [4] = molecular target: T3, 320 non-olfactory GPCRs (Homo sapiens, UniProt Q96RI0)
T3 construct: expressed in transfected cells; host or cells: HTLA cells
T3 sequence (Q96RI0 18-385): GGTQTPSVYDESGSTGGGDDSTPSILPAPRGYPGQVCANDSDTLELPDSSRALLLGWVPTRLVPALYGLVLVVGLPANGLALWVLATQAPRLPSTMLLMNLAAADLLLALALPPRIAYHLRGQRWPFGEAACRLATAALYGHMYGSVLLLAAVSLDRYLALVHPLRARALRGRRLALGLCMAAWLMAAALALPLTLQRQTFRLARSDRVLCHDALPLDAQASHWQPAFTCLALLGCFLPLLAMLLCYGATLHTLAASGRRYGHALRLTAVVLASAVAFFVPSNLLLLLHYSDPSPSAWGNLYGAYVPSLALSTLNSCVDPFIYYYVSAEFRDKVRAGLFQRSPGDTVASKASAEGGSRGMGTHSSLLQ
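For Fold of Basal in this document: compound tested at 1 µM final concentration.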
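For GPCRome agonism screen response in this document: fold over basal response of each receptor without drug.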

Chain of 320 non-olfactory GPCRs (Homo sapiens, UniProt O95665) (O95665 whole entry): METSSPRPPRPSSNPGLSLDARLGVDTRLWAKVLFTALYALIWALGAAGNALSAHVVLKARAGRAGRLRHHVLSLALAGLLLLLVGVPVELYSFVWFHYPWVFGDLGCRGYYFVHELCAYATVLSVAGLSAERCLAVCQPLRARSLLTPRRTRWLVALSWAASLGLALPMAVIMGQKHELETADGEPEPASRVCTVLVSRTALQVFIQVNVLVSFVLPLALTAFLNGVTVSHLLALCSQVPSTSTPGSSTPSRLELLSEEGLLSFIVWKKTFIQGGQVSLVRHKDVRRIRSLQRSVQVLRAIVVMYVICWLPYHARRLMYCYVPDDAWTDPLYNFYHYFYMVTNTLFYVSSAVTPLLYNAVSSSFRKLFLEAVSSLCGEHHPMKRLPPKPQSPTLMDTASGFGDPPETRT

Q: What does the source list for `CCOc1cccc2cc(C(C)NCC3(O)CCCCC3)oc12` (stereo not shown) [O4LE6]?
A: GPCRome agonism screen response (320 non-olfactory GPCRs [1]): 0.5368 and 0.5673 and 0.48 and 0.67; GPCRome agonism screen response (320 non-olfactory GPCRs [2]): 0.07165 and 0.9825 and 0.5999; GPCRome agonism screen response (320 non-olfactory GPCRs [3]): 1.363 and 1.785 and 0.5079 and 1.083; Fold of Basal (320 non-olfactory GPCRs [4]): 0.98 and 0.6043 and 0.591 and 0.7202

From PMC7044277 (Nature Communications, 2020)
